In publication PMC9694579 (Microorganisms, 2022):
Read-outs that look alike come from different tables or passages of the source.

Assays:
in vitro [1] = details: human; for CC50: Cytotoxicity CC50 Huh-7
in vitro [2] = details: African green monkey
in vitro [3] = details: human
in vitro [4] = details: human; remark: listed apart in the source
YFV [5] = experiment: microbe, parasite or virus in culture; type: cell-based, Yellow fever virus strain 17D; details: for EC50: read-out: Anti-YFV Activity (Huh-7) EC50; for EC90: read-out: Anti-YFV Activity (Huh-7) EC90
Huh-7 cells [6] = details: human
YFV [7] = experiment: microbe, parasite or virus in culture; type: cell-based; details: Yellow fever virus, RD, read-out: EC50, inhibition of YFV replication in RD cells
YFV [8] = details: cited from earlier work
[9] = tested on: primary human hepatocytes
YFV [10] = experiment: microbe, parasite or virus in culture; type: cell-based, Yellow fever virus strain 17D; details: Yellow fever virus, Macrophage; for EC50: read-out: EC50, YFV replication in MDM
Huh-7 cells [11] = details: human; remark: listed apart in the source
YFV [12] = details: mouse, in vivo; cited from earlier work
Huh-7 cells [13] = details: cited from earlier work
YFV [14] = experiment: microbe, parasite or virus in culture; type: cell-based, Yellow fever virus strain 17D; details: Yellow fever virus, Huh-7, 72 h, read-out: EC50 in 3D cultures
MDM = details: human
in vitro [15] = details: human; remark: listed apart in the source
[16] = tested on: primary human hepatocytes; details: cited from earlier work
YFV 17D = details: mouse, in vivo
[17] = Yellow fever virus, Huh-7, 72 h

| Compound | CC50 (in vitro [1]) [µM] | CC50 (in vitro [2]) [µM] | CC50 (in vitro [3]) [µM] | CC50 (in vitro [4]) [µM] | EC50 (YFV [5]; [17]) [µM] | EC90 (YFV [5]; [17]) [µM] | NTP formation in Huh-7 cells (Huh-7 cells [6]) [pmol / 10^6 cells] | other results |
| --- | --- | --- | --- | --- | --- | --- | --- | --- |
| O=c1ccn([C@@H]2O[C@H](CO)[C@@H](O)[C@@]2(F)Cl)c(=O)[nH]1 [Compound 6] | > 100 | > 100 | > 100 | > 100 | > 10 | > 10 |  |  |
| O=c1ccn([C@@H]2O[C@H](CO)[C@@H](O)C2(Cl)Cl)c(=O)[nH]1 [Compound 2] | > 100 | > 100 | > 100 | > 100 | > 10 | > 10 | 0.5 |  |
| O=c1ccn([C@@H]2O[C@H](CO)[C@@H](O)[C@]2(F)Cl)c(=O)[nH]1 [Compound 4] | > 100 | > 100 | > 100 | > 100 | > 10 | > 10 | 0.5 |  |
| O=c1ccn([C@@H]2O[C@H](CO)[C@@H](O)[C@]2(F)Br)c(=O)[nH]1 [Compound 8] | > 100 | > 100 | > 100 | > 100 | > 10 | > 10 |  |  |
| CC(C)OC(=O)[C@H](C)NP(=O)(OC[C@H]1O[C@@H](n2ccc(=O)[nH]c2=O)[C@@](F)(Cl)[C@@H]1O)Oc1ccccc1 (some centres unmarked) [Compound 5] |  | > 100 | > 100 | > 100 | 0.4 ± 0.2 | 6.5 ± 2.6 | 866.2 | EC50 (YFV [7]): 0.5 ± 0.2 µM; Reduction of CPE in RD cell line (YFV [8]): < 2%; NTP formation in primary human hepatocytes [9]: 5245.0 pmol / 10^6 cells |
| CC(C)OC(=O)[C@H](C)N[P@](=O)(OC[C@H]1O[C@@H](n2ccc(=O)[nH]c2=O)[C@](C)(F)[C@@H]1O)Oc1ccccc1 [Sofosbuvir, sofosbuvir, reference compound] | < 100 | > 100 | > 100 | > 100 | 0.6 ± 0.6 | 3.5 ± 1.5 | 317.2 | EC50 (YFV [10]): 0.4 ± 0.3 µM; NTP formation in primary human hepatocytes [9]: 2230.0 pmol / 10^6 cells; CC50 (Huh-7 cells [11]): 88.5 ± 11.6 µM; Viral burden in sera, livers, kidneys and spleens (YFV [12]): failed to reduce viral burden |
| CC(C)OC(=O)[C@H](C)NP(=O)(OC[C@H]1O[C@@H](n2ccc(=O)[nH]c2=O)C(Cl)(Cl)[C@@H]1O)Oc1ccccc1 (some centres unmarked) [Compound 3] | > 100 | > 100 | > 100 | > 100 | 0.4 ± 0.5 | 3.2 ± 2.7 | 39.7 | NTP formation in primary human hepatocytes [9]: 622.0 pmol / 10^6 cells |
| CC(C)OC(=O)[C@H](C)NP(=O)(OC[C@H]1O[C@@H](n2ccc(=O)[nH]c2=O)[C@](F)(Br)[C@@H]1O)Oc1ccccc1 (some centres unmarked) [Compound 11] |  | > 100 | > 100 | > 100 | > 10 | > 10 |  |  |
| CC(C)OC(=O)[C@H](C)N[P@](=O)(OC[C@H]1O[C@@H](n2ccc(=O)[nH]c2=O)[C@@](F)(Br)[C@@H]1O)Oc1ccccc1 [Compound 9] |  | > 100 | > 100 | > 100 | 0.85 | 7.8 ± 3.6 |  | NTP formed in Huh-7 cells (Huh-7 cells [13]): 646 ± 107 pmol/10^6 cells; EC50 (YFV [10]): 0.4 ± 0.1 µM; EC90 (YFV [10]; read-out: EC90, YFV replication in MDM): 1.5 ± 0.6 µM; EC50 (YFV [14]): 3.2 µM; viability at 100 µM (in vitro [1]): 87.1%; Cytotoxicity in MDM (MDM): no notable cytotoxicity up to 100 µM; viability at 100 µM (in vitro [15]): 84.3 ± 0.9%; NTP formed in primary hepatocytes [16]: 3206 ± 247 pmol/10^6 cells; Immune cell infiltration into the liver (YFV 17D): significantly reduced; Impact on total circulating leukocytes (YFV 17D): no adverse impact; Impact on weight loss (YFV 17D): no adverse impact; Levels of serum transaminase (ALT) (YFV 17D): reduced; Percentage of mice with absent inflammatory cell infiltration in the liver (YFV 17D): 25%; Percentage of mice with mild inflammatory cell infiltration in the liver (YFV 17D): 50%; Percentage of mice with minimum inflammatory cell infiltration in the liver (YFV 17D): 25%; YFV genome copy levels (virus load) in liver (YFV 17D): significant reduction; EC50 (YFV [5]): 0.9 ± 0.8 µM |
| O=c1ccn([C@@H]2O[C@H](CO)[C@@H](O)[C@@]2(F)Br)c(=O)[nH]1 [Compound 10] | > 100 | > 100 | > 100 | > 100 | > 10 | > 10 |  |  |
| CC(C)OC(=O)[C@H](C)NP(=O)(OC[C@H]1O[C@@H](n2ccc(=O)[nH]c2=O)[C@](F)(Cl)[C@@H]1O)Oc1ccccc1 (some centres unmarked) [Compound 7] |  | > 100 | > 100 | > 100 | > 10 | > 10 |  |  |
